The values below come from paper PMC6949936, “Probing the Interactions of Sulfur-Containing Histidine Compounds with Human Gamma-Glutamyl Transpeptidase” (Marine Drugs, 2019).

The target in this assay is T1, Gamma-glutamyl transpeptidase (eqGGT) (Equus caballus, UniProt F7DXY0).
T1 construct: GGT from equine kidney (Sigma-Aldrich)
Put plainly: time-dependent irreversible inactivation, pre-incubation with […] DON then dilution. It is filed as biochemical.

The structures appear in SMILES notation.

T1 sequence (F7DXY0 75-452): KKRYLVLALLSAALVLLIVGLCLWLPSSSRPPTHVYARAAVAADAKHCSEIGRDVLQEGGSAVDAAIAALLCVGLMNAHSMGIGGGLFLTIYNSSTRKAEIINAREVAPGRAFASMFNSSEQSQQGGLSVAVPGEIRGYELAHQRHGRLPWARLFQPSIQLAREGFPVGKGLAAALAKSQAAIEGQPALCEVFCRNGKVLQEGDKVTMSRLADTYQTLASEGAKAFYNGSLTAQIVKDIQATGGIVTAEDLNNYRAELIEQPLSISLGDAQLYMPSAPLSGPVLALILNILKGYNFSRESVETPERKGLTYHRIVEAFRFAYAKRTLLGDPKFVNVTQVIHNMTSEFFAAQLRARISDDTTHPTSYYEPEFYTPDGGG
T1 sequence (F7DXY0 453-641): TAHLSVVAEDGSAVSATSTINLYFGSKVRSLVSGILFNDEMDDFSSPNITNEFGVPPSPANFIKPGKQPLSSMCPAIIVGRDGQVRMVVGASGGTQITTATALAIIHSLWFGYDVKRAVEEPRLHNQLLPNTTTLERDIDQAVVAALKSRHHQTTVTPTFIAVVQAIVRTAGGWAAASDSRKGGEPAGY

For `[N-]=[N+]=CC(=O)CC[C@H](N)C(=O)O` [DON, 6-diazo-5-oxo-L-norleucine], the “time-dependent irreversible inactivation, pre-incubation with 400 μM DON then di” value is “DON acts as an irreversible inhibitor, and then as an inactivator of GGT, because, after dilution, the activity was not restored”.
